Laboratory results taken from US6657060B2, “Pyrimidine derivatives” (Hoffman-La Roche Inc., priority 2000, dated 2003).

Target: T1, recombinant mouse NPY5-receptor (mNPY5) (Mus musculus, UniProt O70342)
T1 construct: The full-length cDNA encoding the mouse NPY5 (mNPY5) receptor was amplified from mouse brain cDNA; expressed in transfected cells; membranes
T1 sequence (O70342 1-466): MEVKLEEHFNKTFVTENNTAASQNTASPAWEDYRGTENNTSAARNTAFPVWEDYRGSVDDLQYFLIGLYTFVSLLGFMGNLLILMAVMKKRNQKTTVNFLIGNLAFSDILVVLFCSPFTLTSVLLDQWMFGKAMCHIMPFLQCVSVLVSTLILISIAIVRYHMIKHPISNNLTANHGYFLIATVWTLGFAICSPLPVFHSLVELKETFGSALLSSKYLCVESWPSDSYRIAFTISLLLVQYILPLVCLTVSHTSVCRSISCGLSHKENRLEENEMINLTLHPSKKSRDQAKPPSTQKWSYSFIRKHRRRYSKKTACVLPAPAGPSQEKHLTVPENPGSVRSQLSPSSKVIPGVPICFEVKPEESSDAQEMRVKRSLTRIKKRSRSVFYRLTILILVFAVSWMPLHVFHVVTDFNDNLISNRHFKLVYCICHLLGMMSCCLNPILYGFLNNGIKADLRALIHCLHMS
Experiment: Radioligand competition binding
Settings: membranes of HEK293 cells expressing mNPY5; 100 pM [125I]labelled peptide YY (PYY); 1 h at 22° C.
Text: The full-length cDNA encoding the mouse NPY5 (mNPY5) receptor was amplified from mouse brain cDNA using specific primers, designed based on the published sequence, and Pfu DNA-Polymerase (Stratagene). The amplification product was subcloned into the mammalian expression vector pcDNA3 using Eco RI and XhoI restriction sites. Positive clones were sequenced and one clone, encoding the published sequence was selected for generation of stable cell clones.
Human embryonic kidney 293 (HEK293) cells were transfected with 10 μg mNPY5 DNA using the lipofectamine reagent (Gibco BRL) according to the manufacturer's instruction. Two days after transfection, geneticin selection (1 mg/ml) was initiated and several stable clones were isolated. One clone was further used for pharmacological characterization.
Human embryonic kidney 293 cells (HEK293), expressing recombinant mouse NPY5-receptor (mNPY5) were broken by three freeze/thawing cycles in hypotonic Tris buffer (5 mM, pH 7.4, 1 mM MgCl2), homogenized and centrifuged at 72,000×g for 15 min. The pellet was washed twice with 75 mM Tris buffer, pH 7.4, containing 25 mM MgCl2 and 250 mM sucrose, 0.1 mM phenylmethylsulfonylfluoride and 0.1 mM 1,10-pheneanthrolin, resuspended in the same buffer and stored in aliquots at −80° C. Protein was determined according to the method of Lowry using bovine serum albumine (BSA) as a standard. […]

IC50 [nM]	Structure (SMILES)
30	Cc1cc(N2CCCC2)nc(/C=C/c2ccc(F)cc2F)n1 [Compound 43, (E)-2-[2-(2,4-difluoro-phenyl)-vinyl]-4-methyl-6-pyrrolidin-1-yl-pyrimidine]
18	Cc1cc(N2CCCC2)nc(/C=C/c2cccc(C#N)c2)n1 [Compound 20, (E)-3-[2-(4-methyl-6-pyrrolidin-1-yl-pyrimidin-2-yl)-vinyl]-benzonitrile]
